From a melting point compilation (Tetko et al.; mined from patent text by program, amines drawn as free bases though some values may be those of a salt) come the findings set out here.

As a reminder, the melting point is the temperature of the solid-liquid transition.

`CC(=O)N1c2cc([N+](=O)[O-])ccc2[C@H]2Cc3ccc([N+](=O)[O-])cc3[C@H]21` (relative stereo) registered a melting point of 264 to 266 °C.

`Oc1ccc(CN2CCN(CCCN3CCN(Cc4ccc(O)cc4)CC3)CC2)cc1` came in with a melting point of 197 to 201 °C.

`COc1ccc2c(c1)C(=O)N(c1cc3ccn(C)c3cn1)C2`: the melting point was 205 to 210 °C.

Take `C=C1N(CCCCCCC)C(=O)OC12CCN(Cc1ccccc1)CC2`: the melting point was in the range of 47 to 48 °C.

In the case of `COc1ccc(-c2nc(C(F)F)oc2-c2ccc(OCCO)cc2)cc1`, the melting point fell in the range of 114 to 116 °C.

For the molecule `COC(=O)c1cc(-c2nn(C)c(SC)c2C)c(F)cc1Cl`, the melting point lay in the range of 82 to 83 °C.

On to `COC(=O)c1ccc(COc2cc3c(=O)n(-c4ccc(NC(=O)OC(C)(C)C)cc4)c(C(=O)OC)c(-c4cc(OC)c(OC)c(OC)c4)c3cc2OC)cc1`, for which the melting point fell in the range of 197 to 199 °C.

With `CC(=O)NC(Cc1ccc(OCCc2nc(-c3ccccc3)oc2C)cc1)C(N)=O` (configuration not stated), the melting point was 224 to 226 °C.

For the molecule `CC(=O)OC1(c2ccccc2)C=CC(=O)C=C1`, the melting point was 100 to 101 °C.

With `Cc1ccc2cccnc2c1C(=O)Nc1nnn[nH]1`, the melting point was 285 to 287 °C.

`O=C(Oc1ccccc1)N1Cc2ccccc2C(Oc2ccc(C(F)(F)F)cc2)C1` (configuration not stated) gave a melting point of 72 °C.

In the case of `CN(C)CCCNS(=O)(=O)c1ccc(C(C)(C)c2cc(C(C)(C)CC(C)(C)C)cc(-n3nc4ccccc4n3)c2O)cc1`, the melting point is 96 to 101 °C.

The molecule `N#Cc1nc(-c2ccccc2)c[nH]1` came in with a melting point of 151 to 153 °C.

For `Ic1ccc(N(c2ccccc2)c2ccccc2)cc1`, the melting point lay in the range of 102 to 104 °C.

Molecule `Cc1c(-c2ccncc2)[nH]c2ccc(C3=NNC(=O)CC3C)cc12` (configuration not stated) had a melting point of 233 to 235 °C.

`CCC(=O)N1CCCC2=C1CCc1cc(Cl)ccc12` displayed a melting point of 115 to 117 °C.

`CCOC(=O)c1ncn(C(c2ccccc2)(c2ccccc2)c2ccccc2)c1C` gave a melting point of 188 to 190 °C.

Regarding `Cn1ccn(CC#CCn2ccnc2)c1=O`, the melting point was 106 to 109 °C.

`COC(=O)c1ccc(/C=C(\C)c2ccc3c(c2)OC(C)(C)O3)cc1` came in with a melting point of 72 to 74 °C.

In turn, `C=C(C)COc1ccc(CC(=O)OC)cc1[N+](=O)[O-]` came in with a melting point of 30 to 31.5 °C.

As for `Cc1ccc(-n2ncc(C(=O)O)c2C)cc1`, the melting point turned out to be 203 °C.

`Fc1ccc(-c2nc(SCCCCSc3nc(-c4ccc(F)cc4)c(-c4ccc(F)cc4)[nH]3)[nH]c2-c2ccc(F)cc2)cc1`: the melting point was in the range of 172 to 174 °C.

The molecule `CCn1cc(C(=O)NC2CCCCC2)c(=O)c2cnc(N3CCCC3)nc21` showed a melting point of 265 to 267 °C.

For the molecule `O=[N+]([O-])CS(=O)(=O)c1ccc2c(c1)OCO2`, the melting point is 131 to 132 °C.

In turn, `CC(C)OC(=O)C(C)Oc1ccc(COc2ccc(Cl)cc2)cc1` (configuration not stated) gave a melting point of 81 °C.

For `O=Cc1cc2c(ccc3ccoc32)c2ccccc12`, the melting point was 164 to 166 °C.

In turn, `Nc1nc(-c2cccc(C(F)(F)F)c2)nc2nc(-c3ccco3)nn12` displayed a melting point of 296 to 298 °C.

On to `O=C1Nc2cccc(-c3ccc(C(=O)O)cc3)c2/C1=C/c1ccc[nH]1`, for which the melting point lay in the range of 315 to 317 °C.

Turning to `CN(C)CC1CCc2cc(NC(=O)c3ccc(Br)cc3)ccc2C1` (configuration not stated), the melting point is 141 to 143 °C.

Turning to `COc1cc2c(cc1OC)C(c1ccc([N+](=O)[O-])c(C)c1)=NN(c1noc(=O)[nH]1)[C@H](C)C2`, the melting point fell in the range of 221 to 223 °C.

`CC(C)(CC(O)(C(=O)Nc1ccc([N+](=O)[O-])c(C(F)(F)F)c1)C(F)(F)F)c1ccccc1` (configuration not stated) displayed a melting point of 119 to 120 °C.

`COc1cccc2cc(CNCCNC(=O)C(C)(C)C)oc12` showed a melting point of 81 to 82 °C.

As to `NS(=O)(=O)c1ccc(-c2cc(F)c(F)cc2-c2ccc(F)cc2)cc1`, the melting point was 190 to 192 °C.

Regarding `COc1cc2c(cc1OC)[C@@H]1C[C@H](NC(=O)OC(C)(C)C)[C@@H](N3C[C@H](CF)CC3=O)CN1CC2`, the melting point was greater than 300 °C.

The molecule `CC(=O)N1CCCC(=O)c2c(Cl)cccc2CCC1=O` came in with a melting point of 115 to 116 °C.

With `O=C1N(CC2CCCO2)c2ccccc2C12COc1cc3c(cc12)OCCCO3` (configuration not stated), the melting point is 134 to 138 °C.

`CCn1ncc(C(=O)c2ccc(S(C)(=O)=O)c(N3CCOC(O)C3)c2Cl)c1O` (configuration not stated) gave a melting point of 209 to 210 °C.

Turning to `CN1CCN(C(=O)OC2c3ccccc3C(=O)N2c2ccc3ncccc3n2)CC1` (configuration not stated), the melting point lay in the range of 170 to 171 °C.

Turning to `NC(=O)c1nnn(Cc2ccccc2Cl)c1N`, the melting point was 206 to 208 °C.

Molecule `Nc1ccc(N2CCCC2)nn1` registered a melting point of 209 to 211 °C.

Regarding `COc1ccc(-c2[nH]nc3c2C(=O)c2c(NC(=O)Cc4ccc(NC(C)=O)cc4)cccc2-3)cc1`, the melting point came to 268 °C.

The molecule `CN(Cc1ccc(-c2ccc(OCc3nnn[nH]3)c(Br)c2)cc1)C(=O)c1cn(C)c2ccccc12` had a melting point of 239 °C.

Molecule `Cc1ccc(CNC(=S)N2CCc3c([nH]c4ccccc34)C2c2ccc3c(c2)OCO3)cc1C` (configuration not stated) displayed a melting point of 138 to 142 °C.

The molecule `CCOC(=O)c1c2ccc(Cl)cc2c(-c2ccccc2)n1C1=CCC(=O)C=C1` came in with a melting point of 94 to 95 °C.

The molecule `COC(=O)c1nc(Cl)c(Cl)c(Cl)c1N` returned a melting point of 151 to 152 °C.

`CCCCc1cc(-c2ccc(S(N)(=O)=O)cc2)n(-c2ccc(OC)cc2)c1` registered a melting point of 115 to 117 °C.

In the case of `CCOC(=O)c1ccc(NC(=O)C=C2c3ccccc3CCc3ccccc32)cc1`, the melting point lay within 178 to 180 °C.

Molecule `C=CCOc1cc(OC(=S)N2CCCC2)ccc1Cl` came in with a melting point of 87.3 to 91.1 °C.

`COC(=O)C(c1ccc(OCCNC(=O)C2Cc3ccccc3N2S(=O)(=O)c2ccc(-c3cccc(C(F)(F)F)c3)cc2)cc1)C(C)C` (configuration not stated): the melting point lay in the range of 68 to 76 °C.

On to `CCCCNC(=O)[C@@H]1CCCN1C(=O)OCc1ccccc1`, for which the melting point was in the range of 88 to 90 °C.

Take `O=[N+]([O-])c1cc(Cl)cc(CO)c1`: the melting point fell in the range of 74 to 75 °C.

Molecule `CC(C)(C)Nc1c(NCc2cc(Cl)ccc2Cl)c(=O)c1=O` had a melting point of 236 °C.

With `CCN(CC)CCNC(=O)c1cc(I)cc2cc3ccccc3nc12`, the melting point lay within 108 to 110 °C.

In turn, `COc1nccc(F)c1NC(=O)OC(C)(C)C` gave a melting point of 75 to 77 °C.

On to `CC1(C)[C@@H](CNc2ccc(C(F)(F)F)cn2)CC[C@@]1(C)NCC(=O)N1C[C@@H](F)C[C@H]1C#N`, for which the melting point was 52 to 58 °C.

Turning to `COc1ccc(CC#N)c(CC#N)c1`, the melting point was in the range of 49 to 51 °C.

`CC(=O)c1c(C)oc2c(-n3c(=O)cc(C(F)(F)F)n(C)c3=O)c(F)cc(Cl)c12` gave a melting point of 138 to 140 °C.

The molecule `CN(C)C=C(C#N)C(=O)NCc1ccccc1Cl` returned a melting point of 144 to 146 °C.

As to `COc1ccc(Cc2cc(C3CCN(C(=O)NCc4ccccc4)CC3)nc(N)n2)cc1`, the melting point lay in the range of 128 to 131 °C.

Take `COc1cc2c(Nc3ccc(Sc4nccn4C)c(Cl)c3)c(C#N)cnc2cc1N(C)CCCN(C)C`: the melting point lay within 196 to 201 °C.

In the case of `CC1CCN(c2c(-c3c(F)cc(F)cc3F)c(Cl)nc3nc(S(C)(=O)=O)nn23)CC1`, the melting point amounted to 206 °C.

`CNC1=NS(=O)(=O)N=C(Oc2ccccc2[N+](=O)[O-])N1C(C)C` yielded a melting point of 242 °C.

On to `CCCc1cc(-c2[nH]c3ccccc3c2C)cc(CCC)c1O`, for which the melting point is 102 °C.

Molecule `CCCc1nnc2n1-c1sc(CC)cc1C(c1ccccc1Cl)=NC2NC(=O)c1ccc2ccccc2c1` (configuration not stated) registered a melting point of 226 to 227 °C.

`COc1ccc(/C=C(\C#N)c2ccsc2)cc1OC1CCCC1` returned a melting point of 83 to 84 °C.

Take `CCn1c(=O)[nH]c2c(C)nn(CC)c2c1=O`: the melting point lay within 208 to 209 °C.

Turning to `Cc1nnc(NCCCN2CCN(C)CC2)c2cc3ccccn3c12`, the melting point is 60 °C.

Consider `Cc1cc(CCCCCOc2ccc(C3=NCCO3)cc2)no1`, for which the melting point lay in the range of 91 to 92 °C.

The molecule `COc1cc(NS(=O)(=O)c2ccc(N3CCNC3=O)cc2)cc(OC)c1OC` came in with a melting point of 233 to 235 °C.

`O/N=C\c1cccc(Cl)c1`: the melting point was in the range of 64 to 66 °C.

In the case of `Cc1oc2c(-n3c(=O)cc(C(F)(F)F)n(C)c3=O)ccc(Cl)c2c1[N+](=O)[O-]`, the melting point lay in the range of 174 to 175 °C.

Molecule `COc1ccc2ccc3nc(C(=O)O)cn3c2c1` had a melting point of 272 to 273 °C.

Consider `O=C(O)c1ccc(Sc2ccc(O)cc2)cc1`, for which the melting point was 196 to 200 °C.

`CN(c1cccc2cc(-c3ncc(CO)s3)[nH]c12)S(=O)(=O)c1cccs1` yielded a melting point of 201 to 202 °C.

In the case of `N#Cc1ccccc1-c1ccc(CCl)cc1`, the melting point lay within 125 to 126 °C.

`O=C1c2ccccc2C(=O)c2c1c(Cl)c1ccc(Sc3ccccc3)cc1c2Cl`: the melting point was in the range of 160 to 163 °C.

In the case of `CCOC(=O)c1snc(-c2ccc(F)cc2)c1N`, the melting point was 137 to 139 °C.

Take `Cc1ccc(S(=O)(=O)C2SC(=O)N(C(c3ccccc3)(c3ccccc3)c3ccccc3)C2=O)cc1` (configuration not stated): the melting point fell in the range of 105 to 110 °C.

Regarding `CCCn1cc(Cc2ccc(C(=O)OC)cc2OC)c2cc(C=CCC(=O)N(C)C)ccc21`, the melting point is 122 to 124 °C.

As for `COc1cc(N)ccc1S(=O)(=O)Nc1ccc(C)cc1`, the melting point was 158 to 160 °C.

As to `CCOC(=O)NC(C)c1ccc(O)c(C2CCCCC2)c1` (configuration not stated), the melting point was 97 to 98 °C.

The molecule `COCCN1CCc2ccc(OC)c(Nc3ncc(Cl)c(Nc4ccc(N5CCOCC5)cc4OC)n3)c2CC1` came in with a melting point of 68 to 80 °C.

Turning to `COCCOc1cc(N)c(Cl)cc1C(=O)O`, the melting point was in the range of 119 to 120 °C.

In turn, `C[C@@H]1CNC(=O)c2cc3ccc(C(F)(F)F)cc3n21` had a melting point of 201 to 204 °C.

In turn, `CCCCS(=O)(=O)NC(CNC(=O)c1cccc(C(=O)C2CCC3(CCNCC3)CC2)c1)C(=O)O` (configuration not stated) displayed a melting point of 155 to 157 °C.

With `Cc1noc(C)c1Cn1cc(N2C(=O)CN(CCc3ccccc3)C2=O)cn1`, the melting point is 95 to 96 °C.

Consider `COC(=O)c1cc(CI)on1`, for which the melting point was in the range of 91 to 95 °C.
